In patent US20090214670A1, “Rhcc peptide and uses thereof” (Optovent AB, priority 2005, published 2009):

What was measured:
[1] = system: IL-6-dependent BAF/3 cell line; assay: biological activity on the IL-6-dependent BAF/3 cell line; type: cell-based
From the text: The calculated molecular mass of RHCC-IL-6 monomer is 28.3 kDa. […] The corresponding value for the tetramer is […].

RHCC [2] = assay: filtering experiment: excess metal complex removed via size exclusion filters, absorption spectra; type: binding, Staphylothermus marinus; settings: mixed with excess metal complex, stirred at least 1 hour, solvent replaced via size exclusion filters; FIG. 2 and 3
Experimental: After leaving the mixed solution stirred for at least 1 hour, the solvent containing RHCC, the metal complex and the buffer or any other supporting salt, the solvent together with any excess metal complex and salt is replaced via size exclusion filters by a solvent NOT containing any metal complex. The result of such an experiment is plotted in FIG. 2. […] In combination with the x-ray structures a location of HgI4^2− inside the cavities in solution can be concluded. […] According to the crystal structure, incorporation into the cavities of RHCC can be concluded for cisplatin.

RHCC peptide = assay: NMR and UV-Vis absorption experiments on incorporation of metal ions in solution; type: binding, Staphylothermus marinus
From the text: For the addition of electrons according to reaction (4), electrochemical or photoelectrochemical reduction (with e.g. [Ru(bpy)3]^2+) may be used, although the simple addition of a chemical reducing agent (e.g. NaBH4) is also possible.

RHCC [3] = assay: localisation by UV-Vis spectroscopy (solvatochromic effect); type: binding, Staphylothermus marinus; settings: tris-buffer solution with RHCC compared with water, methanol, water/methanol 50/50; FIG. 1
Experimental: The location of a drug inside the cavities can be detected by techniques sensitive to the local microscopic environment of the molecule, e.g. the drug. For example the absorption of visible light (UV-Vis spectroscopy—solvatochromic effect) can be used to probe the local environment of e.g. […] (FIG. 1). The position of the absorption peak of […] is measured in water (FIG. 1—Plot A), in methanol (FIG. 1, Plot C), water/methanol (50/50) (FIG. 1—Plot B) and in a mixture with the peptide (FIG. 1—Plot E).

| Compound | biological activity on IL-6-dependent BAF/3 cell line [1] | interaction of metal complex with RHCC after filtering off excess complex (RHCC [2]) | incorporation of the metal ion into RHCC peptide in solution (RHCC peptide) | local environment of the complex when mixed with the peptide (absorption peak position) (RHCC [3]) |
| --- | --- | --- | --- | --- |
| RHCC-IL-6 fusion molecule: fusion protein: histidine tag, human interleukin-6 sequence, GS linker, RHCC sequence; forms a tetramer | full biological activity |  |  |  |
| N.N.[Cl][Pt][Cl] [cisplatin] |  | strong interaction |  |  |
| [I][Hg-2]([I])([I])[I] [HgI4^2−] |  | strong enough to prevent HgI4^2− from being filtered from the solution | incorporates the metal ion in solution | resides in a hydrophobic environment |
| [Cl][Pt-2]([Cl])([Cl])[Cl] [[PtCl4]^−] |  |  | incorporates the metal ion in solution |  |
